Results taken from ChEMBL document CHEMBL1201862, “PubChem BioAssay data set” (2004).
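Step 1: Grow cells in 96-well plates. Step 2: Expose to compound for 48 hours at 5 concentrations. Step 3: Interpolate endpoints linearly; if unreached, use highest concentration. Abbreviation: GI50, concentration required for 50% inhibition of growth.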 Activity calls are given as the source filed them. Rule as the data show it: active = GI50 up to about 1.1 µM and inactive = higher.

Tests used:
Test in all cases: NCI anticancer screen, dose series, 48 h
[1] = tested on: SN12C
[2] = tested on: KM12
[3] = tested on: BT-549
[4] = tested on: SK-OV-3
[5] = tested on: SF-539
[6] = tested on: HCT-116
[7] = tested on: OVCAR-8
[8] = tested on: M14
[9] = tested on: NCI-H522
[10] = tested on: DU-145
[11] = tested on: HL-60
[12] = tested on: NCI-H23
[13] = tested on: SW-620
[14] = tested on: MDA-N
[15] = tested on: U-251
[16] = tested on: SNB-75
[17] = tested on: NCI/ADR-RES
[18] = tested on: TK-10
[19] = tested on: NCI-H226
[20] = tested on: SF-268
[21] = tested on: MDA-MB-435
[22] = tested on: SR
[23] = tested on: Hs-578T
[24] = tested on: RPMI-8226
[25] = tested on: PC-3
[26] = tested on: MOLT-4
[27] = tested on: NCI-H460
[28] = tested on: RXF 393
[29] = tested on: HOP-62
[30] = tested on: A549
[31] = tested on: CAKI-1
[32] = tested on: SK-MEL-28
[33] = tested on: COLO 205
[34] = tested on: UACC-62
[35] = tested on: SK-MEL-5
[36] = tested on: K562
[37] = tested on: OVCAR-4
[38] = tested on: Malme-3M
[39] = tested on: SF-295
[40] = tested on: T47D
[41] = tested on: A498
[42] = tested on: SK-MEL-2
[43] = tested on: IGROV-1
[44] = tested on: MCF7
[45] = tested on: CCRF-CEM
[46] = tested on: ACHN
[47] = tested on: MDA-MB-231
[48] = tested on: OVCAR-5
[49] = tested on: SNB-19
[50] = tested on: HOP-92
[51] = tested on: EKVX
[52] = tested on: UACC-257
[53] = tested on: 786-0
[54] = tested on: OVCAR-3
[55] = tested on: HCT-15
[56] = tested on: LOX IMVI
[57] = tested on: HT-29
[58] = tested on: HCC 2998
[59] = tested on: UO-31

Question: With `FC(F)(F)c1nc2nc(Cl)c(Cl)nc2n1CCCN1CCOCC1` as the molecule, how does the GI50 [1] read?
Answer: The GI50 was 84.9 µM (inactive).

Question: What about the GI50 [2] of the same molecule?
Answer: Its GI50 is > 100 µM (inactive).

Question: What about the GI50 [3] of the same molecule?
Answer: The GI50 was 56 µM (inactive).

Question: What about the GI50 [4] of the same molecule?
Answer: The GI50 was > 100 µM (inactive).

Question: What about the GI50 [5] of the same molecule?
Answer: The GI50 was 72.4 µM (inactive).

Question: What about the GI50 [6] of the same molecule?
Answer: The GI50 was 41.9 µM (inactive).

Question: And the GI50 [7]?
Answer: Its GI50 is 29.3 µM (inactive).

Question: What about the GI50 [8] of the same molecule?
Answer: Its GI50 is 48.2 µM (inactive).

Question: What about the GI50 [9] of the same molecule?
Answer: The GI50 was 29.4 µM (inactive).

Question: What about the GI50 [10] of the same molecule?
Answer: The GI50 was 24.9 µM (inactive).

Question: And the GI50 [11]?
Answer: Its GI50 is 19.1 µM (inactive).

Question: What about the GI50 [12] of the same molecule?
Answer: The GI50 was 34.7 µM (inactive).

Question: What about the GI50 [13] of the same molecule?
Answer: Its GI50 is 42.9 µM (inactive).

Question: What about the GI50 [14] of the same molecule?
Answer: Its GI50 is 35.7 µM (inactive).

Question: And the GI50 [15]?
Answer: Its GI50 is 65.9 µM (inactive).

Question: And the GI50 [16]?
Answer: Its GI50 is 79.3 µM (inactive).

Question: What about the GI50 [17] of the same molecule?
Answer: Its GI50 is > 100 µM (inactive).

Question: And the GI50 [18]?
Answer: The GI50 was > 100 µM (inactive).

Question: What about the GI50 [19] of the same molecule?
Answer: Its GI50 is > 100 µM (inactive).

Question: What about the GI50 [20] of the same molecule?
Answer: The GI50 was 40.4 µM (inactive).

Question: And the GI50 [21]?
Answer: The GI50 was 44.9 µM (inactive).

Question: What about the GI50 [22] of the same molecule?
Answer: Its GI50 is 0.489 µM (active).

Question: What about the GI50 [23] of the same molecule?
Answer: Its GI50 is 33.7 µM (inactive).

Question: What about the GI50 [24] of the same molecule?
Answer: Its GI50 is 23.4 µM (inactive).

Question: What about the GI50 [25] of the same molecule?
Answer: The GI50 was 61.2 µM (inactive).

Question: What about the GI50 [26] of the same molecule?
Answer: Its GI50 is 13 µM (inactive).

Question: And the GI50 [27]?
Answer: Its GI50 is 52 µM (inactive).

Question: What about the GI50 [28] of the same molecule?
Answer: The GI50 was 25.4 µM (inactive).

Question: And the GI50 [29]?
Answer: The GI50 was > 100 µM (inactive).

Question: And the GI50 [30]?
Answer: Its GI50 is > 100 µM (inactive).

Question: And the GI50 [31]?
Answer: The GI50 was 3.71 µM (inactive).

Question: And the GI50 [32]?
Answer: The GI50 was 33.7 µM (inactive).

Question: And the GI50 [33]?
Answer: Its GI50 is 54.6 µM (inactive).

Question: And the GI50 [34]?
Answer: Its GI50 is 50.6 µM (inactive).

Question: And the GI50 [35]?
Answer: Its GI50 is 61.5 µM (inactive).

Question: What about the GI50 [36] of the same molecule?
Answer: The GI50 was 14.2 µM (inactive).

Question: What about the GI50 [37] of the same molecule?
Answer: The GI50 was 55.5 µM (inactive).

Question: And the GI50 [38]?
Answer: The GI50 was 56 µM (inactive).

Question: And the GI50 [39]?
Answer: The GI50 was > 100 µM (inactive).

Question: What about the GI50 [40] of the same molecule?
Answer: Its GI50 is 47 µM (inactive).

Question: And the GI50 [41]?
Answer: The GI50 was 97.5 µM (inactive).

Question: What about the GI50 [42] of the same molecule?
Answer: Its GI50 is 37.9 µM (inactive).

Question: What about the GI50 [43] of the same molecule?
Answer: Its GI50 is 26.4 µM (inactive).

Question: And the GI50 [44]?
Answer: Its GI50 is 53.1 µM (inactive).

Question: And the GI50 [45]?
Answer: The GI50 was 24.7 µM (inactive).

Question: What about the GI50 [46] of the same molecule?
Answer: The GI50 was > 100 µM (inactive).

Question: And the GI50 [47]?
Answer: The GI50 was 78.2 µM (inactive).

Question: What about the GI50 [48] of the same molecule?
Answer: The GI50 was > 100 µM (inactive).

Question: And the GI50 [49]?
Answer: Its GI50 is 51.4 µM (inactive).

Question: What about the GI50 [50] of the same molecule?
Answer: The GI50 was 32 µM (inactive).

Question: And the GI50 [51]?
Answer: Its GI50 is 23.4 µM (inactive).

Question: What about the GI50 [52] of the same molecule?
Answer: Its GI50 is 24 µM (inactive).

Question: What about the GI50 [53] of the same molecule?
Answer: Its GI50 is > 100 µM (inactive).

Question: And the GI50 [54]?
Answer: Its GI50 is 64.3 µM (inactive).

Question: What about the GI50 [55] of the same molecule?
Answer: The GI50 was 29 µM.

Question: What about the GI50 [56] of the same molecule?
Answer: Its GI50 is 30.4 µM (inactive).

Question: What about the GI50 [57] of the same molecule?
Answer: Its GI50 is 66.8 µM (inactive).

Question: Which results are given for `CCOC(=O)C1C(c2ccc(OC)cc2)c2c(nn(-c3ccccc3)c2O)CC1(C)O` (configuration not stated)?
Answer: GI50 [1]: 91.2 µM (inactive); GI50 [2]: 7.1 µM (inactive); GI50 [3]: 0.0159 µM (active); GI50 [5]: 92.7 µM (inactive); GI50 [6]: 17.9 µM (inactive); GI50 [7]: 98.2 µM (inactive); GI50 [8]: 11 µM (inactive); GI50 [9]: 50 µM (inactive); GI50 [10]: 38.8 µM (inactive); GI50 [11]: 1.38 µM (inactive); GI50 [12]: 43.5 µM (inactive); GI50 [13]: 18.5 µM (inactive); GI50 [14]: 3.21 µM (inactive); GI50 [15]: 53.3 µM (inactive); GI50 [16]: > 100 µM (inactive); GI50 [17]: 42.5 µM (inactive); GI50 [18]: 50 µM (inactive); GI50 [20]: > 100 µM (inactive); GI50 [21]: 3.02 µM (inactive); GI50 [22]: 6.49 µM (inactive); GI50 [23]: > 100 µM (inactive); GI50 [24]: 2.29 µM (inactive); GI50 [25]: 7.5 µM (inactive); GI50 [26]: 0.596 µM (active); GI50 [27]: 5.48 µM (inactive); GI50 [29]: > 100 µM (inactive); GI50 [30]: 18.9 µM (inactive); GI50 [31]: > 100 µM (inactive); GI50 [32]: 37.5 µM (inactive); GI50 [58]: 26.4 µM (inactive); GI50 [33]: 16 µM (inactive); GI50 [34]: 1.54 µM (inactive); GI50 [35]: 2.81 µM (inactive); GI50 [37]: 96.6 µM (inactive); GI50 [38]: > 100 µM (inactive); GI50 [39]: 2.29 µM (inactive); GI50 [40]: 12.9 µM (inactive); GI50 [41]: > 100 µM (inactive); GI50 [42]: 93.8 µM (inactive); GI50 [43]: > 100 µM (inactive); GI50 [44]: 33.6 µM (inactive); GI50 [45]: 7.1 µM (inactive); GI50 [46]: 23 µM (inactive); GI50 [47]: 59.2 µM (inactive); GI50 [48]: > 100 µM (inactive); GI50 [49]: 75.2 µM (inactive); GI50 [50]: 92.3 µM (inactive); GI50 [51]: 51.8 µM (inactive); GI50 [52]: 3.31 µM (inactive); GI50 [59]: 11 µM (inactive); GI50 [53]: > 100 µM (inactive); GI50 [54]: 80.4 µM (inactive); GI50 [55]: 14.3 µM; GI50 [56]: 0.813 µM (active); GI50 [57]: 28 µM (inactive)
